{"source": "patent US6458812B1", "about": "“Muscarinic antagonists” (Schering Corporation, priority 2000, dated 2002)", "key": {"[1]": {"experiment": "Microsomal stability, rat", "type": "in vitro ADME", "conditions": "rat liver microsomes, 37° C.", "experimental": "(§1) A solution of a compound of formula I at a final substrate concentration of […] and human, cynomolgus monkey or rat liver microsomes at final P450 concentrations of 0.18, 0.175 and 0.25 nmol/ml, respectively, is incubated in 0.1 M potassium phosphate buffer at pH 7.4 in 96-well micro-titre plates at 37° C. for 3 min in a shaking water bath. A cofactor solution containing MgCl2, Glucose-6-phosphate, NADPH, and Glucose-6-phosphate dehydrogenase is added to each sample (half the total incubation volume/sample) and the total incubation mixture is incubated for 0 and 30 min. (An n=3 samples is incubated for each compound). After each time point, an equal volume of CH3CN is added. The samples are mixed by vortexing and the plates are centrifuged at 3000 rpm for 20 min. The supernatant is analyzed by Liquid Chromatography Mass Spectrometry (LCMS) for parent drug and/or metabolites using an appropriate analytical method."}, "[2]": {"experiment": "Microsomal stability, monkey", "type": "in vitro ADME, cynomolgus monkey", "conditions": "monkey liver microsomes, 37° C.", "experimental": "as §1"}, "[3]": {"experiment": "Microsomal stability, human", "type": "in vitro ADME", "conditions": "human liver microsomes, 37° C.", "experimental": "as §1"}}, "note": "Structures can show the parent of a compound that is named as a salt.", "data": [{"molecule": "C[C@H](NC(=O)c1ccc(CC2CCN(C3CCCCC3)CC2)cc1)c1ccc(F)cc1", "note": "(as salt: HCl) [Example 2]", "values": [{"measurement": "melting point", "value": "234 to 235", "unit": "°C"}]}, {"molecule": "C[C@H](NC(=O)c1ccc(CC2CCN(C3CCCCC3)CC2)cc1)c1ccc(F)cc1", "note": "[Example 2]", "values": [{"measurement": "% remaining after 30 min.", "setting": "[1]", "value": 79, "unit": "%"}, {"measurement": "% remaining after 30 min.", "setting": "[2]", "value": 80, "unit": "%"}, {"measurement": "% remaining after 30 min.", "setting": "[3]", "value": 80, "unit": "%"}]}]}
